Results from ChEMBL document CHEMBL1143556 (J Med Chem, 2005).

Columns and labels:
[1] = target: T1, Peroxisome proliferator-activated receptor alpha (Homo sapiens, UniProt Q07869); experiment: Inhibition of human Peroxisome proliferator activated receptor alpha
T1 sequence (Q07869 whole entry): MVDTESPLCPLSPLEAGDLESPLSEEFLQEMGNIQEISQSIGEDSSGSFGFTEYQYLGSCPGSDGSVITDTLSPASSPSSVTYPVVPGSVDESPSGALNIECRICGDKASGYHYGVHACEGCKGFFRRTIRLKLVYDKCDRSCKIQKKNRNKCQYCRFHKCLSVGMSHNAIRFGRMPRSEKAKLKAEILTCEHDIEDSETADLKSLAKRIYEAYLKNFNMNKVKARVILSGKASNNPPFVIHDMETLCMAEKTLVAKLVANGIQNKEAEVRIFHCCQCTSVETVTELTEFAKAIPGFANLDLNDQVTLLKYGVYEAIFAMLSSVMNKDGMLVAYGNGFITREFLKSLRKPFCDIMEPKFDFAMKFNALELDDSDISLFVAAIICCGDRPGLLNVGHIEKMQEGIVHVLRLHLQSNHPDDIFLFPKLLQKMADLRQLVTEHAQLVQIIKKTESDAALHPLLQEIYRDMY

[2] = target: T1, Peroxisome proliferator-activated receptor alpha; experiment: Effective concentration against human Peroxisome proliferator activated receptor alpha
[3] = target: T2, Peroxisome proliferator-activated receptor gamma (Homo sapiens, UniProt P37231)
T2 sequence (P37231 whole entry): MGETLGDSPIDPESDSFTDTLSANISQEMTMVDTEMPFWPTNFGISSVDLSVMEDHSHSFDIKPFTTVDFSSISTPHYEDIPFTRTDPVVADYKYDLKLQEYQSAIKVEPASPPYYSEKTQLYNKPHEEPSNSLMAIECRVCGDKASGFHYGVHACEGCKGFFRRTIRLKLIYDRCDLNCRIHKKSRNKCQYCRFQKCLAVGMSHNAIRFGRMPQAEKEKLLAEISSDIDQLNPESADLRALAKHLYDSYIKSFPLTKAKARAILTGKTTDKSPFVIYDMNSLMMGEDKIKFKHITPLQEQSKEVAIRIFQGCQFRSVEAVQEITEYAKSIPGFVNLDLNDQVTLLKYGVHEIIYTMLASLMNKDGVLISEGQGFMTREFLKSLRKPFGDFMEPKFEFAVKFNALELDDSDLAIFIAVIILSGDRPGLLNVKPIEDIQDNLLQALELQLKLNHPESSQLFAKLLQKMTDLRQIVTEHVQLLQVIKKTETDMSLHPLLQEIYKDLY

[4] = target: T2, Peroxisome proliferator-activated receptor gamma; experiment: Inhibition of human Peroxisome proliferator activated receptor gamma
[5] = tested on: Rattus norvegicus; experiment: Clearance was measured in male SD rat after 5 mg/kg intra arterial dosage; n=3
[6] = tested on: Rattus norvegicus; experiment: Half life was measured in male SD rat after 5 mg/kg intra arterial dosage; n=3
[7] = tested on: Rattus norvegicus; experiment: Time to maximum concentration was measured in male SD rat after 10 mg/kg oral dosage; n=3

SMILES | IC50 [1] [nM] | EC50 [2] [nM] | EC50 [3] [nM] | IC50 [4] [nM] | CL (mL.min-1.kg-1) [5] | T1/2 [6] [h] | Tmax [7] [h]
CC(C)(Oc1ccc(C(=O)c2ccc(Cl)cc2)cc1)C(=O)O [FENOFIBRIC ACID] | > 10000 | > 10000 |  |  |  |  | 
CCCCCCCN(CCc1ccc(O[C@@](C)(CC)C(=O)O)cc1)C(=O)Nc1ccc(F)cc1F | 538 | < 20 | 425 | 316 |  |  | 
Cc1oc(-c2ccccc2)nc1CCOc1ccc(CN(CC(=O)O)Cc2ccccc2)cc1 | 1400 | 20 | 1500 | 4800 |  |  | 
COc1ccc(OC(=O)N(CC(=O)O)Cc2ccc(OCCc3nc(-c4ccccc4)oc3C)cc2)cc1 [MURAGLITAZAR] | 250 | 320 |  |  | 3 | 7.3 | 0.4
